The values below come from patent publication US12312599B2, “Methods, compositions, and kits for producing beige adipocytes and treating metabolic disorders” (MaineHealth, priority 2018, dated 2025).

In one test the test system is iPSCs. Kind of test: Mesoderm induction of iPSCs: FOXF1 and IRX3 expression. In kind it is cell-based, human. The note with it: SB added to in-house mesoderm induction medium. As to the method: PSCs were cultured in monolayer on hESC-qualified Matrigel-coated plates (Corning) and expanded in NutriStem hPSC XF Medium (Stemgent) and passaged with ReLeSR passaging reagent (STEMCELL Technologies). For mesoderm induction (Day 0), PSC colonies was dissociated with TrypLE cell dissociation reagent (Thermofisher) and plated on Matrigel coated plates in NutriStem medium containing 10 μM Y-27632 Rho kinase inhibitor (Calbiochem). The following day (Day 1), NutriStem medium was replaced with STEMdiff Mesoderm Induction Medium (MIM) (STEMCELL Technologies) and changed each day until day 5.
Note: Only use Y-27632 stock solutions that have been resuspended in DMSO. […] Conduct Mesoderm induction of iPSC in a laminar flow cabinet. • 3. Expand cells in NutriStem hPSC XF Medium overnight and change 100% of the medium without Y-27632 every 24 hours in a laminar flow cabinet for cell culture. When changing media, tilt plate up and allow media to pool at the bottom of wells. Aspirate the pooled medium without touching the surface of the plate. Replace with medium warmed to room temperature by pipetting 2 ml down the side of the wells. Cell Passaging • 1. Expand cell colonies until they have reached 70-80% confluence in high-density areas of the wells. High-density accumulation can occur along the edges of the well as well as the middle. Cells permitted to reach high density will lose their potential for differentiation after multiple passages. • 2. Prior to cell passage, warm cell wash buffer and NutriStem hPSC XF Medium to room temperature. Conduct cell passage in a laminar flow cabinet. • 3. Aspirate NutriStem hPSC XF Medium from wells with vacuum aspirator and wash with PBS without calcium or magnesium. Remove PBS and add 1 ml of ReLeSR reagent to side of well. Agitate plate to allow ReLeSR reagent to spread evenly on the surface. • 4. Aspirate ReLeSR reagent with vacuum aspirator after 30 seconds, which will leave behind a thin film of liquid. Incubate plate at 37° C. for 5-8 minutes undisturbed. • 5. Add fresh NutriStem hPSC XF Medium to wells and gently remove the cell colonies from the plate. Check that most cells have been dislodged from the plate surface with a light microscope. If not, rewash with more medium as needed. • 6. Transfer cell colony suspension in NutriStem hPSC XF Medium to Matrigel coated culture plates for further expansion (see Cell plating and culture above). Generation of iPSC Derived MSCs Mesoderm Induction of iPSC • 1. When iPSCs have reached 70-80% confluence, they will need to be passaged as single cells rather than colonies prior to mesoderm induction (day 0). • 2. Prepare for passage by warming cell wash buffer and NutriStem hPSC XF medium to room temperature and add Y-27632 Rho kinase inhibitor to medium at a final concentration of 10 μM. […]

The subject of another test is SMAD2. Kind of test: Western blot of phosphorylated SMAD2 in FD-MSCs. In kind it is cell-based, human. The note with it: SB pretreatment 2 days in MesenCult-ACF. As to the method: All assays were performed between 7 and 15 passages. For osteocyte differentiation, mature MSCs were grown in 24 well culture plates to 100% confluency in MesenCult-ACF and induced to differentiate in OsteoLife Complete Osteogenesis Medium (Lifeline Cell Technology) for 21 days prior to staining with Lifeline Alizarin Red Stain to visualize calcium deposition. For chondrocyte differentiation. For beige adipogenic precursor generation, cells were grown in 24 well culture plates to 90% confluence and treated with 5 uM SB413542 (Sigma) and 10 nM human IL-4 (Peprotech) for 2 days. For beige adipogenic induction, adipogenic precursors are differentiated for 3 days with adipogenic medium consisting of T3 (2 nM), insulin (170 nM), rosiglitazone (1 μM), SB413542 (5 uM), IBMX (0.5 mM), dexamethasone (5 μM) and indomethacin (125 μM) in EGM-2 medium (Lonza) supplemented with the BulletKit minus FGF2 (modified from^33). Thereafter, cells are maintained in adipogenic medium without IBMX, dexamethasone and indomethacin. The medium was changed every 3 days and adipocytes were fully differentiated by 9-12 days as determined by lipid accumulation and peak expression of UCP1. […] SWATH runs were extracted and analyzed using PeakView software and MarkerView software was utilized to find statistically relevant relationships through t test comparisons. […]

With `NC(=O)c1ccc(-c2nc(-c3ccc4c(c3)OCO4)c(-c3ccccn3)[nH]2)cc1` [SB, SB431542], in the test on iPSCs, the FOXF1 expression entry is given as “loss” and the IRX3 expression entry was “increased expression”. Besides, the “constitutive phosphorylation of SMAD2” value with SMAD2 was “inhibited”.
